Results published in patent publication US20110086891A1, “Solid Forms of 2-(2,4-Difluorophenyl)-6-(1-(2,6-Difluorophenyl)Ureido)Nicotinamide)” (Vertex Pharmaceuticals Incorporated, priority 2009, published 2011).
In brackets after ≈: the same amount, converted by molar mass. Entries after “also recorded” stand apart in the source; their conditions may differ.

Experiments:
Assay type in all cases: physicochemical
[1] = Interconversion studies (slurries in EtOAc, MeOH and water); details: ambient conditions
Description: Interconversion studies between the different forms of Compound I described herein were carried out using the general procedure outlined here:
Interconversion studies were conducted in EtOAc, MeOH and water with materials giving XRPD patterns A, P, C and F. Attempts were made to monitor the presence of the different forms of Compound I in the methanol and ethyl acetate interconversion slurries using Raman analysis and XRPD. The presence of the solvents was dominant in the Raman spectra of the slurries. […] After slurrying for 10 days, pattern A was obtained from MeOH. Pattern C was obtained from all samples slurried in EtOAc or water. […] Interconversion data can be found in Tables XVII.

[2] = Stability studies at 40° C./75% RH (physical and chemical stability, XRPD)
From the text: In some embodiments, less than 25% of the solid form of Compound I decomposes, in some embodiments, less than about 20%, less than about 15%, less than about 10%, less than about 5%, less than about 3%, less than about 1%, less than about 0.5% of the form of Compound I decomposes under the conditions specified. In some embodiments, no detectable amount of the solid form of Compound I decomposes. […] In some embodiments, less than 25% of the solid form of Compound I changes into one or more different physical forms when subjected to specified conditions. In some embodiments, less than about 20%, less than about 15%, less than about 10%, less than about 5%, less than about 3%, less than about 1%, less than about 0.5% of the solid form of Compound I changes into one or more different physical forms of Compound I when subjected to specified conditions. In some embodiments, no detectable amount of the solid form of Compound I changes into one or more physically different solid forms of Compound I.

[3] = Relative stability studies: slurrying 1:1 mixtures of forms in 3:1 water:ethanol at various temperatures; details: slurry in 3:1 water:ethanol
Description: 1:1 mixtures of Form C and form G of Compound I were slurried in 3:1 water:ethanol at a range of temperatures to determine the relative stability at different temperatures. 5 mg of Form C was mixed with 5 mg of Form G in a glass vial. 1.0 ml of 3:1 water:ethanol was added and the resulting slurry was stirred at 5° C. for 10 days. The resulting solid was isolated by filtration and analysed by XRPD (see FIG. 17).
(§1) The above procedure was repeated at 25, 50 and 80° C.
1:1 mixtures of Form C and Form F were slurried in 3:1 water:ethanol at a range of temperatures to determine the relative stability at different temperatures. […] Ethanol was used in addition to water in order to increase the amount of Compound I in solution and so increase the rate of conversion between forms. Ethanol was chosen as no ethanol solvate of Compound I was known. 10 mg of Form C was mixed with 10 mg of Form F in a glass vial. 2.0 ml of 3:1 water:ethanol was added and the resulting slurry was stirred at 5° C. for 24 hours. Solid was isolated by filtration and analysed by XRPD.
as §1
1:1 mixtures of Form F and Form G were slurried in 3:1 water:ethanol at a range of temperatures to determine the relative stability at different temperatures. 10 mg of Form F was mixed with 10 mg of Form G in a glass vial. 2.0 ml of 3:1 water:ethanol was added and the resulting slurry was stirred at 5° C. for 24 hours. The resulting solid was isolated by filtration and analysed by XRPD. The above procedure was repeated at 25, 50 and 70° C. 70° C. was used instead of 80° C. in an attempt to reduce degradation.

[4] = Gravimetric vapour sorption (GVS) studies
Description: All samples were run on a Hiden IGASorp moisture sorption analyzer running CFRSorp software. Sample sizes were typically 10 mg. A moisture absorption-desorption isotherm was performed as outlined below in Table X (2 scans giving 1 complete cycle). All samples were loaded/unloaded at typical room humidity and temperature (40% RH, 25° C.). All samples were analysed by XRPD post GVS analysis. The standard isotherm was performed at 25° C. at 10% RH intervals over a 0-90% RH range.

[5] = Solubility analysis (in water); details: 25 °C, thermodynamic from solid
Description: This was measured by suspending enough Compound I in 0.25 mL of solvent (water) to give a maximum final concentration of ≧10 mg/ml of the parent free form of the compound. The suspension was equilibrated at 25° C. for 24 hrs followed by a pH check and filtration through a glass fibre C96 well plate. The filtrate was then diluted down by a factor of 101. Quantitation was by HPLC (Table XI) with reference to a standard, diluted and undiluted tests were injected. The solubility was calculated by integration of the peak area found at the same retention time as the peak maximum in the standard injection. If there is sufficient solid in the filter plate the XRPD is normally checked for phase changes, hydrate formation, amorphization, crystallization, etc.

[6] = Apparent (non-equilibrium) solubilities of Form C in various solvents; details: thermodynamic from solid
Description: Table XIII contains representative apparent (non-equilibrium) solubilities of Form C in various exemplary solvents.
Fifty (50.0) mg of Compound I, Form C was weighed into a small, screw-top vial. The relevant solvent was added in portions until a clear solution was obtained. In several cases, solubilization was aided by heating with a heat gun and then allowed to cool down to rt. The data provided in Table XIII are representative and some variability may occur between lots of a particular sample, e.g., about 10%.

- results of stability studies as seen by XRPD (before and after spectra) [2]: before and after spectra are similar
- time remaining in substantially the same physical form ([2]; 40° C./75% RH): at least two
- total weight gain from 0 to 90% RH ([4]; 0 to 90% RH, T=25° C.): 0.15%
- weight gain up to 60% RH ([4]; up to 60% RH, 25° C.): negligible
- solubility at 24 h [5]: ≥ 0.02 mg/mL
- solubility ([6]; organic solvent or mixture, apparent, 1,4-dioxane): 100 mg/mL (≈ 247 mM)
- solubility ([6]; organic solvent or mixture, apparent, 1-Butanol): 50 mg/mL (≈ 124 mM)
- solubility ([6]; organic solvent or mixture, apparent, 2-Butanone): 50 mg/mL (≈ 124 mM)
- solubility ([6]; organic solvent or mixture, apparent, 2-Propanol): 50 mg/mL (≈ 124 mM)
- solubility ([6]; organic solvent or mixture, apparent, 2-Propyl Acetate): < 20 mg/mL
- solubility ([6]; organic solvent or mixture, apparent, Acetone): 50 mg/mL (≈ 124 mM)
- solubility ([6]; organic solvent or mixture, apparent, Acetonitrile): 33 mg/mL (≈ 81.6 mM)
- solubility ([6]; organic solvent or mixture, apparent, Butyl acetate): 33 mg/mL (≈ 81.6 mM)
- solubility ([6]; organic solvent or mixture, apparent, DMSO): 100 mg/mL (≈ 247 mM)
- solubility ([6]; organic solvent or mixture, apparent, Dimethylformamide): 100 mg/mL (≈ 247 mM)
- solubility ([6]; organic solvent or mixture, apparent, Ethanol): 50 mg/mL (≈ 124 mM)
- solubility ([6]; organic solvent or mixture, apparent, Ethyl Acetate): 20 mg/mL (≈ 49.5 mM)
- solubility ([6]; organic solvent or mixture, apparent, Heptane): < 20 mg/mL
- solubility ([6]; organic solvent or mixture, apparent, Hexafluorophenol): 100 mg/mL (≈ 247 mM)
- solubility ([6]; organic solvent or mixture, apparent, Methanol): 100 mg/mL (≈ 247 mM)
- solubility ([6]; organic solvent or mixture, apparent, Methyl isobutyl ketone): 50 mg/mL (≈ 124 mM)
- solubility ([6]; organic solvent or mixture, apparent, Methylene Chloride): < 20 mg/mL
- solubility ([6]; organic solvent or mixture, apparent, N,N-dimethylacetamide): 100 mg/mL (≈ 247 mM)
- solubility ([6]; organic solvent or mixture, apparent, Tert-butyl methyl ether): < 20 mg/mL
- solubility ([6]; organic solvent or mixture, apparent, Tetrahydrofuran): 20 mg/mL (≈ 49.5 mM)
- solubility ([6]; organic solvent or mixture, apparent, Toluene): 20 mg/mL (≈ 49.5 mM)
- solubility ([6]; organic solvent or mixture, apparent, cyclohexane): < 20 mg/mL
- solubility ([6]; apparent, Water): < 20 mg/mL
SMILES: NC(=O)c1ccc(N(C(N)=O)c2c(F)cccc2F)nc1-c1ccc(F)cc1F [Form C, 2-(2,4-difluorophenyl)-6-(1-(2,6-difluorophenyl)ureido)nicotinamide]
- relative stability of unsolvated forms [1]: most stable unsolvated form at ambient conditions
- relative stability between forms [3]: more stable than Form G at a temperature of 50 °C or above; also recorded: more stable than Form F at 50 and 80 °C
